Like-named read-outs stand apart in the source and are kept apart here.

The results in this text go back to patent publication US20100069316A1, “TREATMENT FOR MULTIPLE MYELOMA” (Ares Trading S.A., priority 2006, published 2010).

For assay [1], the system named is CD138+ primary myeloma cells. The assay can be described thus: Ex vivo survival of primary myeloma cells in bone marrow culture. As to conditions: bone marrow cells of 10 myeloma patients, 5 days, 1, 3.3, 10 μM. The format is cell-based, human. The protocol: Bone marrow cells from 10 patients with multiple myeloma (5 patients at diagnosis and 5 relapsing patients) were harvested and mononuclear cells isolated by ficoll hypaque centrifugation.
At day 5, cell numbers were counted and the percentage and counts of myeloma cells were determined by FACS staining using an anti-CD138 monoclonal antibody. This made it possible to assay for viable myeloma cells as CD138 is lost on pre-apoptotic myeloma cells (Jourdan, M. et al. (1998) Br. J. Haematol., 100, 637-648). The percentage and count of CD34 hematopoietic progenitors was also determined with an anti-CD34 monoclonal antibody and FACS labeling.
Bone marrow mononuclear cells from 5 patients with newly diagnosed multiple myeloma or from 5 patients with relapsing multiple myeloma were cultured for 5 days with culture medium and 10% fetal calf serum. […] At the end of culture, cells were counted. Viable myeloma cells were determined using FACS labeling with anti-CD138 monoclonal antibody, as well as viable hematopoietic stem cells using an anti-CD34 monoclonal antibody. Results are expressed as the percentage of viable myeloma cells, non-myeloma cells, or CD34 cells compared to the control culture group without inhibitor.

A further assay deals with L363 myeloma cell line. The assay can be described thus: Cell proliferation assay (tritiated thymidine incorporation), L363. In kind it is cell-based, human. As to conditions: alone or with fixed Velcade/Melphalan; for IC50: concentration of compound A yielding 50% inhibition of proliferation, read-out: IC50; for IC90: concentration of compound A yielding 90% inhibition of proliferation. On the procedure:
(§1) Myeloma cells were harvested in the exponential growth phase (at day 3 after culture passage when the cell concentration is around 5×10^5 cells/ml). Cells were washed twice, cultured for 3 hours in RPMI1640 and 10% FCS, washed twice. This makes it possible to remove cell-bound growth factors (in particular recombinant IL-6). Then cells are plated in 96-well flat-bottomed microplates at various concentrations depending on their doubling time: • 5×10^3 cells/well in 100 μl for the cell lines: XG-1, XG-7 • 10^4 cells/well in […] for the cell lines: XG-2, XG-4, XG-6, XG-11, PRMI8226, L363 • 2×10^4 cells/well in 100 μl for the cell lines: XG-3, XG-12, XG-13, XG-14, XG-19, XG-20
(§2) The culture medium used were: • PRMI1640, 10% FCS and 0.5 ng/ml of IL-6 for XG-1, XG-2, XG-3, XG-4, XG-6, XG-7, XG-11, XG-12, XG-13, XG-19, XG-20 cells • X-VIVO20 and 0.5 ng/ml IL-6 for XG-14 cells • PRMI1640 and 10% FCS for RPMI8226 and L363 cells
(§3) The diluted compounds, DMSO or control culture medium were added in 100 μl at the start of the culture. Three culture wells were done for one compound dilution and the experiments were done twice (finally six culture wells for one compound dilution).
(§4) Cells were cultured for 4 days. Eight hours before the end of the culture, 0.5 μCi of tritiated thymidine were added in 50 μl of RPMI1640 and 10% FCS. Cells were then extracted with a cell collector and the thymidine incorporation was determined using a beta cell counter.
(§5) For each experiment, the mean tritiated thymidine incorporations (mean values determined on three culture wells) were plotted against the logarithmic concentrations of the compound. The curves were fitted with exponential regression, which was determined using the concentrations defining the inhibition response (usually 3-4 concentrations).
(§6) The concentrations yielding 50% and 90% inhibition of the proliferation of myeloma cells were determined with these regression curves.
(§7) The concentration yielding 10% (IC10) or 50% (IC50) inhibition of the myeloma cell lines were determined and the data are listed in Table 2.
(§8) Compound A was tested in combination with melphalan or Velcade. Increasing concentration of compound A (0, 0.01, 0.03, 0.12, 0.37, 1.1, 3.1, 10, 30 μM) were applied on 4 myeloma cell lines alone or in combination with Velcade or melphalan at concentration yielding around 10% or 50% inhibition.

In a further assay the test system is 14 myeloma cell lines. As to the kind of experiment: Cell proliferation assay (tritiated thymidine incorporation), panel of myeloma cell lines. In kind it is cell-based. As to conditions: 14 human myeloma cell lines, 0.04-10 μM, 4 days culture. The protocol:
Myeloma cell lines were passaged every 3-4 days in RPMI640 and 10% fetal calf serum (FCS). For the IL-6 dependent cell lines, 2 ng/ml of freshly thawed IL-6 (Abcys, France) was added at the beginning of the culture. Each cell line has unique phenotypic and HLA characteristics that make it possible to periodically check their identity.
The following cell lines were obtained in B. Klein's laboratory: XG-1, XG-2, XG-3, XG-4, XG-6, XG-7, XG-11, XG-12, XG-13, XG-14, XG-19, XG-20. (Zhang, et al., 1994; Rebouissou, et al., 1998)
RPMI8226 and L363 cell lines were purchased from ATCC.
Myeloma cells were harvested in the exponential growth phase (at day 3 after culture passage when the cell concentration is around 5×10^5 cells/ml). Cells were washed twice, cultured for 3 hours in RPMI1640 and 10% FCS, washed twice. This makes it possible to remove cell-bound growth factors (in particular recombinant IL-6). […]
Cells were cultured for 4 days. […] Cells were then extracted with a cell collector and the thymidine incorporation was determined using a beta cell counter.
For each experiment, the mean tritiated thymidine incorporations (mean values determined on three culture wells) were plotted against the logarithmic concentrations of the compound. The curves were fitted with exponential regression, which was determined using the concentrations defining the inhibition response (usually 3-4 concentrations). […]

Another assay has as its system XG3 myeloma cell line. The assay can be described thus: Cell proliferation assay (tritiated thymidine incorporation), XG3. In kind it is cell-based, human. As to conditions: Homo sapiens, XG3, alone or with fixed Velcade/Melphalan. On the procedure:
as §1, §2, §3, §4, §5, §6, §7, §8

Another assay deals with XG-12 myeloma cell line. As to the kind of experiment: Cell numeration, XG-12. The format is cell-based, human. As to conditions: day 3 of culture. The protocol: Two myeloma cell lines (XG-3 and XG-12) that are sensitive to compound A (1-(4-{4-[4-(4-chlorophenyl)-pyrimidin-2-ylamino]-benzoyl}-piperazin-1-yl)-ethanone) were selected for the study. To assess the effect of compound A on myeloma cell survival, the percentage apoptotic cells was determined using binding of annexin V to apoptotic cells. The effect of compound A on the cell cycle was assessed by evaluating the percentage of cells in the S phase of the cell cycle by incorporation of BrdU-FITC. Apoptosis, cell cycle and cell numeration were evaluated daily on a four day culture period on the cell lines using the IC10, IC50 and I90 respective doses of compound A.

Regarding `CC(=O)N1CCN(C(=O)c2ccc(Nc3nccc(-c4ccc(Cl)cc4)n3)cc2)CC1` [Compound A, 1-(4-{4-[4-(4-Chloro-phenyl)-pyrimidin-2-ylamino]-benzoyl}-piperazin-1-yl)-ethanone], in assay [1], the “survival of primary myeloma cells” value was “inhibits the survival of primary myeloma cells”. Besides, the IC50 with L363 myeloma cell line (Homo sapiens, L-363, L363) was 2.33 µM; in the assay with L363 myeloma cell line (L363), 1.79 µM; in the assay with XG3 myeloma cell line (concentration of compound A yielding 50% inhibition of proliferation, read-out: IC50), 1.49 µM. The IC90 worked out at 10.1 µM with L363 myeloma cell line (Homo sapiens, L-363, L363); 9.41 µM in the assay on L363 myeloma cell line (L363); 6.35 µM with XG3 myeloma cell line (concentration of compound A yielding 90% inhibition of proliferation). For the same compound, in the assay on 14 myeloma cell lines, the “inhibition of the proliferation of myeloma cell lines” value is “full inhibition of the proliferation of 13 out 14 human myeloma cells”. Besides, the “Cells (×10^6/ml) cell counts” value with XG-12 myeloma cell line (XG-12, compound A at IC50 concentration) was 0.35 ×10^6/ml; with XG-12 myeloma cell line (XG-12, compound A at IC90 concentration), 0.11 ×10^6/ml.
